We go through two molecules from article PMC6286256 (Cancer chemotherapy and pharmacology, 2018).

Series [1] relates to PI3K/mTOR. Conditions: cellular assays; cited from earlier work.
Series [2] deals with advanced solid tumors. As to the kind of experiment: Best overall response, all patients. Type of series: in vivo, human. Conditions: single agent and combination.
Series [3] relates to mTOR. Particulars: cellular assays; cited from earlier work.
For series [4] the following is noted: human, in vivo.
The subject of series [5] is patients with advanced solid tumors. The series is described as follows: Safety and tolerability. Conditions: single-agent SDS sachet cohort, all doses, 61 patients. Type of series: in vivo, human.
Series [6] shares this test system. Particulars: single-agent BEZ235, oral once daily, continuous 28-day cycles.
The subject of series [7] is solid tumors. Particulars: cited from earlier work.

On to `Cn1c(=O)n(-c2ccc(C(C)(C)C#N)cc2)c2c3cc(-c4cnc5ccccc5c4)ccc3ncc21` [BEZ235], for which the “concentration at which dual PI3K/mTOR blockade is observed” value in series [1] is given as “≈ 500 nmol/L”. Further, the “Patients with PR as best overall response” value in series [2] (5 patients) came to 2.7%. Besides, the “Patients with SD as best overall response” value in series [2] (62 patients) is listed as 33.9%. In series [3], the “concentration at which mTOR inhibition predominates” value is reported as below 100 nmol/L. For the same molecule, the Bioavailability result in series [4] is recorded as “low bioavailability”. For the same molecule, in series [5], the “Diarrhea, frequency” value was 75.4%; the “Nausea, frequency” value was 80.3%; the “Vomiting, frequency” value came out at 63.9%. The same molecule registered an MTD in series [6] of 1200 mg/day.

Consider `CO[C@H]1C[C@@H]2CC[C@@H](C)[C@@](O)(O2)C(=O)C(=O)N2CCCC[C@H]2C(=O)O[C@H]([C@H](C)C[C@@H]2CC[C@@H](OCCO)[C@H](OC)C2)CC(=O)[C@H](C)/C=C(\C)[C@@H](O)[C@@H](OC)C(=O)[C@H](C)C[C@H](C)/C=C/C=C/C=C/1C` [everolimus], for which the Incidence of stomatitis in series [7] was 59–71%.
